Read-outs that look alike come from different tables or passages of the source.
Target: T1, Zcchc11 enzyme (Homo sapiens, UniProt Q5TAX3)
T1 construct: made in house; host or cells: HEK293 cells (Zcchc11); E. coli Rosetta II (LIN28A)
T1 sequence (Q5TAX3 212-1420): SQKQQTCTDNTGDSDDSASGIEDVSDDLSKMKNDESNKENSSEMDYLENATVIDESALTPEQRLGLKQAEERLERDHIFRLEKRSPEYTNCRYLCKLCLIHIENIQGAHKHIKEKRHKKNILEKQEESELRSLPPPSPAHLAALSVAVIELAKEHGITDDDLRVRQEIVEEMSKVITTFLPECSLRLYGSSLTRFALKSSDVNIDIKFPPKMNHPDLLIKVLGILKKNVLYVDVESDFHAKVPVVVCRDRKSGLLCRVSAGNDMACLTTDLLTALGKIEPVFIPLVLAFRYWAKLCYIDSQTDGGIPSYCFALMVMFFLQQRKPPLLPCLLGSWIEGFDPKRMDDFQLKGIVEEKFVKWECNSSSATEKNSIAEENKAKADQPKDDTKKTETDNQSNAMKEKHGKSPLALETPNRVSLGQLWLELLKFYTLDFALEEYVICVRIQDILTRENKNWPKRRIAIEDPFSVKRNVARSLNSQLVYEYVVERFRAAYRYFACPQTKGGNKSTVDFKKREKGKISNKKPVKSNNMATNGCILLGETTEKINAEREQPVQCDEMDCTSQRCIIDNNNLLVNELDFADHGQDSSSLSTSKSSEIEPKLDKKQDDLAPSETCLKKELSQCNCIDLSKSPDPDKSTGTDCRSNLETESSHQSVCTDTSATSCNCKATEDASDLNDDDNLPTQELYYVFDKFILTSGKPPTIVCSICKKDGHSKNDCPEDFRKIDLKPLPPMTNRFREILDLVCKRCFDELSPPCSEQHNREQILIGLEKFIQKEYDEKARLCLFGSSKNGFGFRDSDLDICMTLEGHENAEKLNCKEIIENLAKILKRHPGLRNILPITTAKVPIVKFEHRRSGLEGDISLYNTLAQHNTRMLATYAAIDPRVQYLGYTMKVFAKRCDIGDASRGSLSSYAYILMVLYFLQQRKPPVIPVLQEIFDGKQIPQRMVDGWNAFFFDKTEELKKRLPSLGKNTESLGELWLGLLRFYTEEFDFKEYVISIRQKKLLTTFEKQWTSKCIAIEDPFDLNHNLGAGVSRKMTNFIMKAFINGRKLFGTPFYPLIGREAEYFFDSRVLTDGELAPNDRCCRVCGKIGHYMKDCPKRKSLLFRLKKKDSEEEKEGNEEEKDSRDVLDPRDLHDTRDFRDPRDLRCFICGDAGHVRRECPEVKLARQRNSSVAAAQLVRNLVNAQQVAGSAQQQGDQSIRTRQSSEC
Assay: TUTase assay (Zcchc11 assay, Lin28a-dependent polyuridylation of pre-let-7)
Type: biochemical
Conditions: read-out: Potency Lin28a-dep Z11 IC50
Method: The purpose of the Zcchc11 assay is to determine compound potency against Zcchc11 enzyme through the measurement of IC50. Compound inhibition is measured as a function of polyuridine tails added to RNA substrates in the presence of active TUTase, UTP, and inhibitor. The Zcchc11 assay was done in a black, non-binding, 384 well plate (Corning #3575). All steps were performed at room temperature. For a typical assay, a 29 ul aliquot of assay buffer (50 mM HEPES pH 7.3, 150 mM KCl, 5 mM MgCl2, 10 mM DTT, 0.01% Triton X-100, 40 U/ml RNAsin (Promega)) containing LIN28A protein (final concentration: 10 nM) is added to each well. Next, 1 ul of compound in 100% DMSO is transferred from a compound dilution plate in which the compound is serially diluted. Next, 10 ul of a 5× mix of Zcchc11 and RNA substrate (5′-fluorescein labeled pre-let-7 miRNA (Dharmacon)) is added (final concentrations: 0.2 nM and 2 nM, respectively). The plate is placed on a plate shaker for 30 seconds to produce mixing, then incubated for 30 minutes. Next, 10 ul of a 5× mix of UTP and the quenching probe (3′-rhodamine labeled A20, polyadenosine nucleotide, (IDT)) is added (final concentrations: 5 uM and 4 nM, respectively). The plate is immediately placed in a Biotek Cytation 5 plate reader, and the time-dependent decrease in fluorescein fluorescence resulting from annealing of the A20 probe to polyuridine tails is recorded, using the kinetics mode of the reader. Reaction rates are obtained using linear fits to the early portion of progress curves. IC50 values are calculated using a four parameter fit with 100% enzyme activity determined from the DMSO control and 0% activity from control samples lacking UTP.
The LIN28A protein was expressed in and purified from E. coli, strain Rosetta II (Novagen). The entire coding sequence of the human, wild-type protein was cloned into expression vector pMAL (NEB), down-stream from a maltose-binding protein tag. The linker sequence contained a TEV protease cleavage site. The protein was purified from bacterial extracts using an MBP-Trap column (GE Healthcare Life Sciences), followed by tag cleavage and removal of the tag by ion-exchange chromatography. When necessary, contaminating bacterial RNA was removed using the procedure describe by Faehnle C R. et al. (2017) Multi-domain utilization by TUT4 and TUT7 in control of let-7 biogenesis. Nat Struct Mol Biol, 24:658-665.
The Zcchc11 protein was expressed in and purified from HEK293 cells. A truncated protein comprising residues 212-1420 of the human sequence was cloned into expression vector pTT5 (Viva Biotech) down-stream from a maltose-binding protein tag. The linker sequence contained a TEV protease cleavage site, and a FLAG tag was added to the carboxyl terminus of the protein. The protein was purified from cell extracts using an MBP-Trap column (GE Healthcare Life Sciences), followed by tag cleavage and further enrichment of the full length construct using anti-FLAG affinity media (Sigma Aldrich).
“+” represents an IC50 value that is greater than 50 μM; “++” represents an IC50 value that is greater than 10 μM and equal to or less than 50 μM; “+++” represents an IC50 value that is greater than 1 μM and equal to or less than 10 μM; and “++++” represents an IC50 value that is equal to or less than 1 μM.

[1] = LIN28A 10 nM, Zcchc11 0.2 nM, 5′-fluorescein pre-let-7 miRNA 2 nM, UTP 5 uM, room temperature, 30 minutes pre-incubation
[2] = Lin28a-dependent Zcchc11 (Z11) TUTase assay
[3] = Lin28a-dependent Zcchc11 (Z11) TUTase activity

| Structure (SMILES) | IC50 [2] | IC50 [3] | further results |
| --- | --- | --- | --- |
| CN(C)CCOc1cnc(-n2cc(C(=O)O)c(=O)c3cc(F)c(N4CCC[C@@H]4COc4ncccc4Cl)cc32)cn1 [Example 16, (R)-7-(2-(((3-chloropyridin-2-yl)oxy)methyl)pyrrolidin-1-yl)-1-(5-(2-(dimethylamino)ethoxy)pyrazin-2-yl)-6-fluoro-4-oxo-1,4-dihydroquinoline-3-carboxylic acid] | – | – | IC50 [1]: ≤ 1 µM |
| N#Cc1cc2c(=O)c(C(=O)O)cn(C3CCn4ccnc4C3)c2cc1N1CCC[C@@H]1COc1ncccc1Cl (stereo partly drawn) [Example 540, 7-((R)-2-(((3-chloropyridin-2-yl)oxy)methyl)pyrrolidin-1-yl)-6-cyano-4-oxo-1-(5,6,7,8-tetrahydroimidazo [1,2-a]pyridin-7-yl)-1,4-dihydroquinoline-3-carboxylic acid] | ≤ 1 µM | – | – |
| CN(C)c1cnc(-n2cc(C(=O)O)c(=O)c3cc(Cl)c(N4CCC[C@@H]4COc4ncccc4Cl)cc32)cn1 [Example 424, (R)-6-chloro-7-(2-(((3-chloropyridin-2-yl)oxy)methyl)pyrrolidin-1-yl)-1-(5-(dimethylamino)pyrazin-2-yl)-4-oxo-1,4-dihydroquinoline-3-carboxylic acid] | ≤ 1 µM | – | – |
| CC1(n2cc(C(=O)O)c(=O)c3cc(Cl)c(N4CCC[C@@H]4COc4ncccc4Cl)c(F)c32)CC1 [Example 9, (R)-6-chloro-7-(2-(((3-chloropyridin-2-yl)oxy)methyl)pyrrolidin-1-yl)-8-fluoro-1-(1-methylcyclopropyl)-4-oxo-1,4-dihydroquinoline-3-carboxylic acid] | – | – | IC50 [1]: 1 to 10 µM |
| Cc1cccc(OC[C@H]2CCCN2c2cc3c(cc2F)c(=O)c(C(=O)O)cn3-c2ccccc2)n1 [Compound 92, (R)-6-fluoro-7-(2-(((6-methyl-pyridin-2-yl)oxy)methyl)pyrrolidin-1-yl)-4-oxo-1-phenyl-1,4-dihydro-quinoline-3-carboxylic acid] | – | ≤ 1 µM | – |
| N#Cc1cc2c(=O)c(C(=O)O)cn(-c3cnc(N4CCC4)cn3)c2nc1N1CCC[C@@H]1COc1ncccc1F (racemic) [Compound 194, rac-(R)-1-(5-(azetidin-1-yl)pyrazin-2-yl)-6-cyano-7-(2-(((3-fluoropyridin-2-yl)oxy)methyl)pyrrolidin-1-yl)-4-oxo-1,4-dihydro-1,8-naphthyridine-3-carboxylic acid] | – | ≤ 1 µM | – |
| COc1ccc(Cl)c(OC[C@H]2C[C@@H]3C[C@@H]3N2c2cc3c(cc2F)c(=O)c(C(=O)O)cn3-c2ccc(N3CC(N(C)C)C3)nc2)n1 [Compound 201, 7-((1S,3R,5S)-3-(((3-chloro-6-methoxy-pyridin-2-yl)oxy)methyl)-2-azabicyclo [3.1.0]hexan-2-yl)-1-(6-(3-(dimethyl-amino)azetidin-1-yl)pyridin-3-yl)-6-fluoro-4-oxo-1,4-dihydro-quinoline-3-carboxylic acid] | – | ≤ 1 µM | – |
| O=C(O)c1cn(Cc2ccccn2)c2cc(N3CCC[C@@H]3COc3ncccc3Cl)c(Cl)cc2c1=O [Example 576, (R)-6-chloro-7-(2-(((3-chloropyridin-2-yl)oxy)methyl)pyrrolidin-1-yl)-4-oxo-1-(pyridin-2-ylmethyl)-1,4-dihydroquinoline-3-carboxylic acid] | ≤ 1 µM | – | – |
| CN(C)C1CN(c2ccc(-n3cc(C(=O)O)c(=O)c4cc(F)c(N5C6CC6C[C@@H]5COc5nc6c(ccn6C)cc5Cl)cc43)cn2)C1 (stereo partly drawn) [Compound 334, 7-[(3R)-3-[({5-chloro-1-methylpyrrolo [2,3-b]pyridin-6-yl}oxy)methyl]-2-azabicyclo [3.1.0]hexan-2-yl]-1-{6-[3-(dimethyl-amino)azetidin-1-yl]pyridin-3-yl}-6-fluoro-4-oxoquinoline-3-carboxylic acid] | – | ≤ 1 µM | – |

Second part, led by results:

| IC50 [2] | IC50 [3] | Structure (SMILES) | further results |
| --- | --- | --- | --- |
| ≤ 1 µM | – | CN(C)C1CN(c2cc(-n3cc(C(=O)O)c(=O)c4cc(Cl)c(N5CCC[C@@H]5COc5ncccc5Cl)cc43)ccn2)C1 [Example 548, (R)-6-chloro-7-(2-(((3-chloropyridin-2-yl)oxy)methyl)pyrrolidin-1-yl)-1-(2-(3-(dimethylamino)azetidin-1-yl)pyridin-4-yl)-4-oxo-1,4-dihydroquinoline-3-carboxylic acid] | – |
| – | ≤ 1 µM | CO/N=C1\CCN(c2cc3c(cc2Cl)c(=O)c(C(=O)O)cn3-c2ccc(N3CC(N(C)C)C3)nc2)C1COc1nc(OC)ccc1Cl (centres unmarked) [Compound 233, (E)-6-chloro-7-(2-(((3-chloro-6-methoxy-pyridin-2-yl)oxy)methyl)-3-(methoxyimino)pyrrolidin-1-yl)-1-(6-(3-(dimethyl-amino)azetidin-1-yl)pyridin-3-yl)-4-oxo-1,4-dihydro-quinoline-3-carboxylic acid] | – |
| – | ≤ 1 µM | CN(C)C1CN(c2ccc(-n3cc(C(=O)O)c(=O)c4cc(Cl)c(N5CCC(C)(C)C5COc5ncccc5Cl)cc43)cn2)C1 (centres unmarked) [Compound 259, 6-chloro-7-(2-(((3-chloropyridin-2-yl)oxy)methyl)-3,3-dimethyl-pyrrolidin-1-yl)-1-(6-(3-(dimethyl-amino)azetidin-1-yl)pyridin-3-yl)-4-oxo-1,4-dihydro-quinoline-3-carboxylic acid] | – |
| ≤ 1 µM | – | O=C(O)c1cn(-c2ccc(N3CCC3)nc2)c2cc(N3CCC[C@@H]3COc3ncccc3Cl)c(Cl)cc2c1=O [Example 422, (R)-1-(6-(azetidin-1-yl)pyridin-3-yl)-6-chloro-7-(2-(((3-chloropyridin-2-yl)oxy)methyl)pyrrolidin-1-yl)-4-oxo-1,4-dihydroquinoline-3-carboxylic acid] | – |
| ≤ 1 µM | – | CN(C)C1CN(c2ccc(-n3cc(C(=O)O)c(=O)c4cc(C5CC5)c(N5CCC[C@@H]5COc5ncccc5Cl)cc43)cn2)C1 [Example 559, (R)-7-(2-(((3-chloropyridin-2-yl)oxy)methyl)pyrrolidin-1-yl)-6-cyclopropyl-1-(6-(3-(dimethylamino)azetidin-1-yl)pyridin-3-yl)-4-oxo-1,4-dihydroquinoline-3-carboxylic acid] | – |
